Test [1] relates to rat ventricular cardiomyocytes. Description: Action potential recording, whole-cell patch clamp. Format: cell-based. Conditions: for effect on APD reduction induced by N-Shh: glibenclamide 1 μM acute, L-NNA, ODQ. The protocol: Whole-cell patch-clamp experiments were performed at room temperature (22-24° C.) with an Axopatch 200B (Axon instrument, Burlingham, Calif., USA). Patch pipettes had resistance of 2 MΩ. Currents were normalized to the cell membrane capacitance (pA/pF). Series resistances were compensated before recordings.
To record APs, pipettes solution contained (in mM): KCl (130), HEPES (25), ATP(Mg) (3), GTP(Na) (0.4), EGTA (0.5); pH 7.2 (KOH). Bathing solution contained (in mmol/L): NaCl (135), MgCl2 (1), KCl (4), Glucose (11), HEPES (2), CaCl2 (1.8); pH 7.4 (NaOH). APs were elicited by 0.2 ms current injection of supra-threshold intensity. During experiments, cells were stimulated by trains of 30 stimuli at 0.5 Hz.
Background: In patch-clamp work, channel activity is measured electrically.

Test [2] deals with T1, ATP-dependent potassium current (IKATP) (Rattus norvegicus, UniProt P70673+Q63563).
T1 construct: endogenous in cells; host or cells: isolated adult rat ventricular cardiomyocytes
The test can be described thus: Glibenclamide-sensitive K+ current (IKATP), voltage clamp. It counts as cell-based.

The test system of test [3] is rat ventricular cardiomyocytes. Description: Nitric oxide (NO) measurement, DAF fluorescence in cardiomyocytes. It counts as cell-based.
In test [4] the test system is rat ventricular cardiomyocytes. Description: Ca2+ transient and cell shortening (sarcomere length, indo-1) under field stimulation. Format: cell-based. Conditions: co-incubation; for effect on reduction of cell shortening and Ca2+ transient amplitude induced by N-Shh: Ccl 30 μM, LY 25 μM, L-NNA 100 μM.
The test system of test [5] is rat model of ischemia reperfusion. The test can be described thus: Left ventricular fibrosis, Masson trichrome histology 24 h after reperfusion. It counts as in vivo. The protocol:
Thin sections (5 μm) were prepared from the rat left ventricles and stained with Haematoxylin-Eosin (HE) and Masson trichrome (MT) for light microscopy (10×). The thickening of the myocardium was estimated on the HE-stained heart sections, and the presence of collagen was analyzed on the MT-stained ventricle sections.

The test system is the same in test [6]. Description: ECG (QTc, ventricular arrhythmias) after 30 min ischemia and 24 h reperfusion. Format: in vivo. As to the method: (§1) Rats were implanted with DSI PhysioTel™ Transmitter (CTA-F40, Data Sciences International, Saint-Paul, Minn., USA), fifteen days before starting experiments. After recovery, ECGs were recorded by using a signal transmitter-receiver (RPC-1; DSI) connected to a data acquisition system (IOX2; EMKA Technologies). The data were collected continuously at a sampling rate of 1,000 Hz. Thus, ECGs were recorded in rats before and 6 hours after i.v. injection of Shh, Shh and hexamethonium, MPs, Shh and cyclopamine, Shh and glibenclamide. ECGs were also monitored 24 h before ischemia, during ischemia and 24 h after reperfusion. Continuous digital recordings were analyzed offline by using the software ECG-auto (ver 1.5.12.22, EMKA Technologies). ECG signals were digitally filtered between 0.1 and 1,000 Hz. The heart rate and QT interval were measured. The QT interval was defined as the time between the first deviation from an isoelectric PR interval until the return of the ventricular repolarisation to the isoelectric TP baseline from lead II ECGs. […]
The rats were subjected to 30 min ischemia followed by reperfusion. The reperfusion injuries were histologically evaluated at 24 h after reperfusion by measuring the infarcted area relative to the area at risk (FIG. 9). […]

Another test relates to rats. Description: Telemetric ECG, QTc interval before and 6 hours after i.v. injection. Format: in vivo, rat. The note with it: given with Shh. As to the method:
as §1, with “ECGs. The QT interval is dependent on the heart rate, therefore, QT interval should be corrected to take into account potential changes in RR interval. The QT correction was performed according to the Bazett's: formula:” for “ECGs.”
where QTB is the QT interval corrected for heart rate, and RR is the interval from the onset of one QRS complex to the onset of the next QRS complex.

Test [7] deals with rat model of ischemia reperfusion. Description: Infarct size (infarcted area relative to area at risk) 24 h after reperfusion. Format: in vivo. The note with it: cyclopamine with N-Shh. The protocol: The rats were subjected to 30 min ischemia followed by reperfusion. The reperfusion injuries were histologically evaluated at 24 h after reperfusion by measuring the infarcted area relative to the area at risk (FIG. 9). Fifteen minutes prior to reperfusion, one group of rats received intravenous (iv) injection of the recombinant Shh homolog ligand (N-ShhH, 25 μg·kg^−1), the second group received N-Shh and the Shh receptor (patch/smoothened) antagonist cyclopamine (N-Shh+Ccl, 30 μmol/L) and the third one the vehicle (control). […] Considering that the cardio-protective effects are observed within a short time after reperfusion (i.e. <24 h), it is unlikely that they are mediated by a neoangiogenesis and/or mobilization of progenitor cells (Kusano K F, Pola R, Murayama T, Curry C, Kawamoto A, Iwakura A, Shintani S, Ii M, Asai J, Tkebuchava T, Thorne T, Takenaka H, Aikawa R, Goukassian D, von Samson P, Hamada H, Yoon Y S, Silver M, Eaton E, Ma H, Heyd L, Kearney M, Munger W, Porter J A, Kishore R and Losordo D W. Sonic hedgehog myocardial gene therapy: tissue repair through transient reconstitution of embryonic signaling. Nat Med. 2005; 11:1197-204. […]

Entries after “also recorded” stand apart in the source; their conditions may differ.

T1 sequence (P70673 whole entry): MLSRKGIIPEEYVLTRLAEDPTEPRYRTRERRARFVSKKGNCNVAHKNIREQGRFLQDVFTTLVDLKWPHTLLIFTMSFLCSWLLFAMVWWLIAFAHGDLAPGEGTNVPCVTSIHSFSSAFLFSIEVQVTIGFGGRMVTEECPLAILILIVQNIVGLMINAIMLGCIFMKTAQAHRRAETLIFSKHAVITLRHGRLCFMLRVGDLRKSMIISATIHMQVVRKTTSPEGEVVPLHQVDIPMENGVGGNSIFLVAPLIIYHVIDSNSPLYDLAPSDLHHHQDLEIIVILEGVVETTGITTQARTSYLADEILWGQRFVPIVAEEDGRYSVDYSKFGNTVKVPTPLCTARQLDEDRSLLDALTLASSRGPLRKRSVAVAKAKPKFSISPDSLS
T1 sequence (Q63563 whole entry): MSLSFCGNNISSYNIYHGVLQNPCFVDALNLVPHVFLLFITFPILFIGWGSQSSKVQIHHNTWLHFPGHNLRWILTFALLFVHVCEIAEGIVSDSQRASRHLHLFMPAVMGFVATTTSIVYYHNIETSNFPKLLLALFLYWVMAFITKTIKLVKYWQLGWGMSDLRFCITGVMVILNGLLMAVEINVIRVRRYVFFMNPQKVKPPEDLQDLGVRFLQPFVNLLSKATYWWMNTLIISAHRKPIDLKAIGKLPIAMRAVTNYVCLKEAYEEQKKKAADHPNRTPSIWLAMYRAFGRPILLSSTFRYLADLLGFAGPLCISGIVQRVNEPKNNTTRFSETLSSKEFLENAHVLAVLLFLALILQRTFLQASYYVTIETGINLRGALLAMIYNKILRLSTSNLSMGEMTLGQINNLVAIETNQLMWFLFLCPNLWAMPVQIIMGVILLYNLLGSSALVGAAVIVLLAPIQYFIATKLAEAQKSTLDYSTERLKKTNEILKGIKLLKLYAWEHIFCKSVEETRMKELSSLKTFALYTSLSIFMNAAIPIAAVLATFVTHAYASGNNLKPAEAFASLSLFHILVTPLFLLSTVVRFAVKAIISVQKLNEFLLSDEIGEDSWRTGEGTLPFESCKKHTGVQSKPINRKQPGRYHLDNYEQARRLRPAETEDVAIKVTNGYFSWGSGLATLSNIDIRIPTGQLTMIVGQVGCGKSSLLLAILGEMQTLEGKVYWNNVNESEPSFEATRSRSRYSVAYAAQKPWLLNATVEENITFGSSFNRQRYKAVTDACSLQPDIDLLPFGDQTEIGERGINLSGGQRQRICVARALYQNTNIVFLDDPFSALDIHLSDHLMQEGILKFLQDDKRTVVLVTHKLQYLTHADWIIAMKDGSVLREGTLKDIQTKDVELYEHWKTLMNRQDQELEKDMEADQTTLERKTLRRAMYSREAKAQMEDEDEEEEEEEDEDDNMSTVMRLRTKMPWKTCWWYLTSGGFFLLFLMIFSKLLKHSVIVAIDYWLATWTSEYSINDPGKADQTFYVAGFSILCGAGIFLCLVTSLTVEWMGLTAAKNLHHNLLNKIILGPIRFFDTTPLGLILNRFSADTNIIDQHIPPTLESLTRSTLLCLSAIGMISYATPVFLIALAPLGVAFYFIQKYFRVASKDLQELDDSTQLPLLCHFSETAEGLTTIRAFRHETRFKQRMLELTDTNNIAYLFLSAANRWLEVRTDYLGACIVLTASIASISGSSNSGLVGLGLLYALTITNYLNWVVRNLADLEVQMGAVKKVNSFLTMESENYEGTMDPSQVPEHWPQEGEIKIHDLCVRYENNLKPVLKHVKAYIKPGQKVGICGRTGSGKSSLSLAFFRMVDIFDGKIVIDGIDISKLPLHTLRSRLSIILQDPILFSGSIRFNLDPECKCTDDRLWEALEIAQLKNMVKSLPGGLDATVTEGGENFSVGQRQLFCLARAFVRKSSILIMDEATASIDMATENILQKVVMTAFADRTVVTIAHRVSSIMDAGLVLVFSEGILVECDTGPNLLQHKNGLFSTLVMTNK

As to `O=c1onc2cnc3ccccc3n12` [ODQ, 1H-[1.2.4]oxadiazolo[4.3-a]quinoxalin-1-one], the “effect on APD reduction induced by N-Shh” value in test [1] is given as “blunted”. For the same compound, in test [2], the “effect on IKATP elicited by N-Shh” value is recorded as “blocked”.
With `N=C(NCCC[C@H](N)C(=O)O)N[N+](=O)[O-]` [L-NNA, N^ω-nitro-L-arginine], the “effect on APD reduction induced by N-Shh” value in test [1] was “blunted”. Besides, the “effect on IKATP elicited by N-Shh” value in test [2] is recorded as “blocked”. For the same compound, in test [3] (co-incubation with N-Shh, L-NNA 100 μM, LY 25 μM), the “effect on N-Shh-induced NO production” value was “prevented”. For the same compound, the “effect on reduction of cell shortening and Ca2+ transient amplitude induced by N-Shh” value in test [4] is “fully abolished”.
Turning to `CC1=C2C[C@H]3[C@@H](CC=C4C[C@@H](O)CC[C@@]43C)[C@@H]2CC[C@]12O[C@@H]1C[C@H](C)CN[C@H]1[C@H]2C` [cyclopamine], the “effect on Shh prevention of fibrosis” value in test [5] was “abolished”. For the same compound, in test [6] (cyclopamine injected in addition to N-Shh), the “effect on N-Shh prevention of QTc enlargement” value was “No beneficial effect; also recorded: abolished”. Besides, the “effect on Shh reduction of ventricular arrhythmic events” value in test [6] (cyclopamine with N-Shh) is “abolished”. Moreover, the “effect on the reduction in QTc interval after Shh injection” value (shortened to “effect on the reduction in QTc interval”) in the test with rats was “prevented”. For the same compound, the “NO production (DAF fluorescence) vs control” value in test [3] (cardiomyocytes incubated 4 h) is on record as “no effect”. Moreover, the “effect on NO production induced by Shh-harboring MPs” value in test [3] (pre-/co-incubation, cyclopamine 30 μM) was “prevented”. In test [4] (cyclopamine 30 μM), the “effect on reduction of cell shortening and Ca2+ transient induced by shed membrane MPs” value is “blocked”. Besides, in test [4], the “effect on reduction of cell shortening and Ca2+ transient amplitude induced by N-Shh” value is listed as “fully abolished”. In addition, the “effect on cardioprotective (infarct-reducing) effect of N-Shh” value in test [7] was “fully abolished; also recorded: fully prevented”.
With `C[N+](C)(C)CCCCCC[N+](C)(C)C` [hexamethonium], the “effect on the reduction in QTc interval” value in the test with rats is on record as “identical”.
Turning to `COc1ccc(Cl)cc1C(=O)NCCc1ccc(S(=O)(=O)NC(=O)NC2CCCCC2)cc1` [glibenclamide], in test [1] (acute application), the “effect on APD in the absence of N-Shh treatment” value is “no effect”. The “effect on APD reduction induced by N-Shh” value in test [1] is recorded as “prevented”. In the test on rats, the “effect on the reduction in QTc interval” value is “prevented”.

Values taken from patent US9987327B2, “Methods for treating myocardial infarction comprising administering sonic hedgehog” (INSERM (INSTITUT NATIONAL DE LA SANTE ET DE EA RECHERCHE …, priority 2013, dated 2018).
